Test results published in patent publication US10806794B2, “Protease inhibitors having enhanced features” (priority 2008, dated 2020).
Read-outs that look alike come from different tables or passages of the source.

Key:
[1] = test system: human liver microsomal proteins; test: Microsomal protein binding by equilibrium dialysis; format: in vitro ADME; details: human liver microsomes, 3 μM, fraction unbound
Description: PEGylated protease inhibitors were evaluated for their propensity to be bound by proteins in normal human plasma or in human liver microsome preparations using equilibrium dialysis analysis. For microsomal protein binding, test compound (final concentration=3 μM) was diluted into either buffer alone or buffer containing human liver microsomes. The protein-free and microsome-containing solutions were then added to either side of an equilibrium dialysis system and allowed to reach equilibrium at 37° C. The concentration of compound on both sides of the membrane at equilibrium was quantified by LC-MS/MS, and the fraction of compound that remains unbound (Fu) is calculated.

CEM-SS cells = test system: CEM-SS cells
Description: (§1) To evaluate whether conjugated protease inhibitors retain the ability to protect against HIV-1 infection, CEM-SS cells infected with the RF strain of HIV-1 were treated with test compounds for six days, and then cell viability was monitored using the tetrazolium dye XTT. […] A value for Therapeutic Index (TI) was calculated as TC50/EC50.

[2] = molecular target: recombinant HIV-1 protease (Human immunodeficiency virus type 1 group M subtype B (isolate HXB2) (HIV-1), UniProt P04585); test: Enzyme inhibition of purified HIV-1 protease (SensoLyte 520 HIV-Protease Assay Kit); format: biochemical; details: read-out: IC50 ± SD
Description: Protease inhibitors (PI) are used to treat HIV infection by preventing viral assembly and maturation through the inhibition of HIV-1 protease activity. Biochemical assays were performed to evaluate the potential of PEG-PI conjugates to inhibit HIV-1 protease activity, relative to their respective PI parent molecules. Activity assays were performed at using the SensoLyte 520 HIV-Protease Assay Kit (Anaspec Inc., San Jose, Calif.) and recombinant HIV-1 protease. Protease activity was monitored by the formation of a fluorescent reporter product generated during HIV-1 protease-mediated digestion of a quenched, fluorimetric substrate containing the p17/p24 Pr^gag cleavage site.

human plasma proteins = test: Plasma protein binding by equilibrium dialysis, human plasma; format: in vitro ADME; details: human plasma, 5 μM, fraction unbound
Description: In assays to estimate binding of test compounds to plasma proteins, test compound solutions (5 μM) are prepared in buffer and species-specific plasma (final DMSO concentration 0.5%). The plasma-containing solution is added to one side of the membrane of an equilibrium dialysis system, and the plasma-free is added to the other side. Dialysis was allowed to reach equilibrium by incubation for two hours at 37° C. The concentration of compound on both sides of the membrane was measured using LC-MS/MS.

HIV-1RF = test: Anti-HIV cytoprotection in CEM-SS cells infected with HIV-1RF (XTT); format: cell-based; details: six days, XTT; read-out: CEM-SS/HIV-1RF EC50 ± SD
Description: as §1

human hepatocytes = test: Metabolic stability in cryopreserved human hepatocytes; details: human hepatocytes, 3 uM, incubated up to one hour
Description: Metabolism of PI conjugates was investigated by monitoring the levels of unmetabolized parent compound following incubation with cryopreserved human or monkey hepatocytes. The use of whole hepatocytes rather than microsomes requires that the drugs cross the cell membrane to interact with intracellularly-localized metabolic enzymes, and thus provides the most relevant in vitro system for understanding overall metabolic stability of these compounds.
Test compounds (0.1 μM or 3 μM, as indicated) are incubated with cryopreserved human hepatocytes at a cell density of 0.5×10^6 viable cells/mL. […] Duplicate samples (50 μL) are removed from the incubation mixture at various timepoints up to four hours (for 0.1 μM test compound concentration), or one or two hours (for 3 μM test compound concentration), and the reaction is quenched by the addition of methanol containing internal standard (100 μL). The samples are centrifuged (2500 rpm at 4° C. for 20 min), and the supernatants at each time point pooled for cassette analysis by LC-MS/MS.

CYP3A4 = CYP3A4 (Homo sapiens (Human), UniProt P08684); test: CYP450 inhibition in human liver microsomes: CYP3A4;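 further: incubation at 37 °C started by adding 1 mM NADPH, with formation of the probe metabolite measured via LC-MS/MS or fluorescent detection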
CYP3A4, sequence (P08684 whole entry): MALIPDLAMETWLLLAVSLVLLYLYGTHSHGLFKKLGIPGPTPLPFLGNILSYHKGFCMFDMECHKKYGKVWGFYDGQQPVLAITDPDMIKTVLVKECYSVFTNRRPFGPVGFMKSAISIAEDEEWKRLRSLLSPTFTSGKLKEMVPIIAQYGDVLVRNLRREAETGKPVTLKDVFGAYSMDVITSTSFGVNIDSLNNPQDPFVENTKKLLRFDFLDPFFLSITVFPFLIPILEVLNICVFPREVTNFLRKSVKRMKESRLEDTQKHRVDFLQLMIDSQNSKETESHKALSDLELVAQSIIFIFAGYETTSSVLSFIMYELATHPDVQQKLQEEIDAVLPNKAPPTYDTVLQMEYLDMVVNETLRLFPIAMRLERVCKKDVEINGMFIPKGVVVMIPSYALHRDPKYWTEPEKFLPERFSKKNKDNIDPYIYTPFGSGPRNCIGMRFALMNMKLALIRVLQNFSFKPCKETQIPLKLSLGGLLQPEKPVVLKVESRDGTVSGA

PBMCs [3] = test: PBMC macromolecule synthesis (tritiated precursor incorporation); format: cell-based, human; details: for Thymidine Incorporation (PBMC) TC50: DNA synthesis; for Uridine Incorporation (PBMC) TC50: RNA synthesis; for Leucine Incorporation (PBMC) TC50: protein synthesis
Description: Cellular macromolecule synthesis was evaluated using tritiated precursor incorporation assays. PBMCs (5×10^4 cells/well) were cultured in the presence or absence of test compound for 7 days at 37 C, 5% CO2 in a 96-well microtiter plate. On day 6 of the incubation, 1 uCi of [methyl-3H]-thymidine for DNA synthesis, [5-3H]-uridine for RNA synthesis, or [3,4,5-3H]-leucine for protein synthesis was added to compound-treated cells, and the plate was further incubated for 16 hours. The cells were transferred to a glass fiber filtermat using an Inotech cell harvester. The filtermats were washed with distilled water then sealed in a bag with scintillation fluid. Incorporated radioactivity was measured using a Wallac scintillation counter.

PBMCs [4] = test: PBMC cytotoxicity (XTT); format: cell-based, human; details: 7 days
Description: Mononuclear cells were isolated from fresh human peripheral blood cells by Ficoll-Hypaque density gradient by centrifugation at 600 g for 30 minutes. Banded peripheral blood mononuclear cells (PBMCs) were aspirated from the resulting interface and washed with phosphate buffered saline by low speed centrifugation. Cell viability was evaluated by Trypan Blue dye exclusion. […] Plates were incubated at 37° C., 5% CO2 for 7 days prior to cytotoxicity evaluation. XTT measurement for cytotoxicity.

Caco-2 cells = test: Bi-directional permeability in Caco-2 monolayers; details: for Efflux ratio (B→A/A→B): Caco-2 monolayers; for A→B, ×10^−6: human, Caco-2
Description: Absorption properties of various compounds were measured using bi-directional permeability assays in Caco-2 cells. […] The efflux ratio is calculated as the ratio of the Papp(B→A)/Papp(A→B).

[5] = read-out: CYP3A4 IC50 Midazolam, probe substrate midazolam
[6] = read-out: CYP3A4 IC50 Testosterone, probe substrate testosterone

Compound: CCC(C1=C(O)CC(CCCNC(=O)OCCOCCOCCOCCOCCOC)(CCc2ccccc2)OC1=O)c1cccc(NS(=O)(=O)c2ccc(C(F)(F)F)cn2)c1 (mixture of isomers) [mPEG5-OCO—NH-Tipranavir]
- Microsomal Protein Binding Fu ± SD [1]: highly unbound
- CEM-SS TC50 ± SD (CEM-SS cells; absence of viral infection): 86100 nM
- IC50 [2]: 0.462 nM
- Plasma Protein Binding Fu ± SD (human plasma proteins): 0.0304 ± 0.000274
- EC50 (HIV-1RF): 1060 nM

Compound: CCC[C@@]1(CCc2ccccc2)CC(O)=C([C@H](CC)c2cccc(N(CCOCCOCCOCCOCCOCCOCCOC)S(=O)(=O)c3ccc(C(F)(F)F)cn3)c2)C(=O)O1 [mPEG7-amide-Tipranavir]
- CLint ± SEM (human hepatocytes): 0.162 ± 0.343 μL/min/10^6 cells
- Microsomal Protein Binding Fu ± SD [1]: highly unbound
- CEM-SS TC50 ± SD (CEM-SS cells): 14500 nM
- IC50 [2]: 12.2 nM
- Plasma Protein Binding Fu ± SD (human plasma proteins): 0.029 ± 0.00436
- EC50 (HIV-1RF): > 200000 nM
- IC50 (CYP3A4; [5]): 2600 nM
- IC50 (CYP3A4; [6]): ~4000 nM

Compound: C[S+](C)[O-] [DMSO, reference compound]
- Thymidine Incorporation (PBMC) TC50 (PBMCs [3]): >2.0%
- Uridine Incorporation (PBMC) TC50 (PBMCs [3]): 0.06%
- Leucine Incorporation (PBMC) TC50 (PBMCs [3]): 0.19%
- XTT (PBMC) TC50 (PBMCs [4]): >2.0%

Compound: COCCOCCOCCOCCOCCOCCOC(=O)N[C@@H](C(=O)NC(Cc1ccccc1)[C@@H](O)CN(Cc1ccc(-c2ccccn2)cc1)NC(=O)[C@H](NC(=O)OCCOCCOCCOCCOCCOCCOC)C(C)(C)C)C(C)(C)C (some centres unmarked) [di-mPEG6-Atazanavir]
- Microsomal Protein Binding Fu ± SD [1]: highly unbound
- CEM-SS TC50 ± SD (CEM-SS cells): 158600 nM
- IC50 [2]: 15.6 nM
- Plasma Protein Binding Fu ± SD (human plasma proteins): 0.868 ± 0.0163
- EC50 (HIV-1RF): 2540 nM

Compound: CCC(C1=C(O)CC(CCCNC(=O)OCCOCCOCCOC)(CCc2ccccc2)OC1=O)c1cccc(NS(=O)(=O)c2ccc(C(F)(F)F)cn2)c1 (mixture of isomers) [mPEG3-OCO—NH-Tipranavir]
- Microsomal Protein Binding Fu ± SD [1]: 0.816 ± 0.0104
- CEM-SS TC50 ± SD (CEM-SS cells; absence of viral infection): 67600 nM
- IC50 [2]: 0.617 nM
- Plasma Protein Binding Fu ± SD (human plasma proteins): 0.0292 ± 0.000428
- EC50 (HIV-1RF): 870 nM

Compound: CCC(C1=C(O)CC(CCCNC(=O)OCCOC)(CCc2ccccc2)OC1=O)c1cccc(NS(=O)(=O)c2ccc(C(F)(F)F)cn2)c1 (mixture of isomers) [mPEG1-OCO—NH-Tipranavir]
- Microsomal Protein Binding Fu ± SD [1]: 0.85 ± 0.184
- CEM-SS TC50 ± SD (CEM-SS cells; absence of viral infection): 49500 nM
- IC50 [2]: 0.188 nM
- Plasma Protein Binding Fu ± SD (human plasma proteins): 0.0145 ± 0.000403
- EC50 (HIV-1RF): 120 nM

Compound: CCC(C1=C(O)CC(CCCNC(=O)OC)(CCc2ccccc2)OC1=O)c1cccc(NS(=O)(=O)c2ccc(C(F)(F)F)cn2)c1 (mixture of isomers) [mPEG0-OCO—NH-Tipranavir]
- Microsomal Protein Binding Fu ± SD [1]: 0.887 ± 0.0749
- CEM-SS TC50 ± SD (CEM-SS cells; absence of viral infection): 54300 nM
- IC50 [2]: 0.292 nM
- Plasma Protein Binding Fu ± SD (human plasma proteins): 0.0105 ± 0.00848
- EC50 (HIV-1RF): 290 nM

Compound: Triton X-100 [reference compound]
- Thymidine Incorporation (PBMC) TC50 (PBMCs [3]): 0.002%
- Uridine Incorporation (PBMC) TC50 (PBMCs [3]): 0.0009%
- Leucine Incorporation (PBMC) TC50 (PBMCs [3]): 0.0006%
- XTT (PBMC) TC50 (PBMCs [4]): 0.003%

Compound: COCCOCCOCCOCCOCCOCCOCCOC(=O)N[C@@H](C(=O)NC(Cc1ccccc1)[C@@H](O)CN(Cc1ccc(-c2ccccn2)cc1)NC(=O)[C@H](NC(=O)OCCOCCOCCOCCOCCOCCOCCOC)C(C)(C)C)C(C)(C)C (some centres unmarked) [di-mPEG7-Atazanavir]
- Efflux ratio (B→A/A→B) (Caco-2 cells): >3.6
- A→B, ×10^−6 (Caco-2 cells): 0.06 cm/s
- Microsomal Protein Binding Fu ± SD [1]: highly unbound
- CEM-SS TC50 ± SD (CEM-SS cells): >200000 nM
- IC50 [2]: 10.9 nM
- Plasma Protein Binding Fu ± SD (human plasma proteins): highly unbound
- EC50 (HIV-1RF): 8350 nM
- IC50 (CYP3A4; [5]): > 50000 nM
- IC50 (CYP3A4; [6]): > 50000 nM

Compound: CCCC1(CCc2ccccc2)CC(O)=C(C(CC)c2cccc(N(CCOCCOCCOC)S(=O)(=O)c3ccc(C(F)(F)F)cn3)c2)C(=O)O1 (centres unmarked) [mPEG3-amide-Tipranavir]
- CLint ± SEM (human hepatocytes): 1.66 ± 1.24 μL/min/10^6 cells
- Microsomal Protein Binding Fu ± SD [1]: 0.73 ± 0.0153
- CEM-SS TC50 ± SD (CEM-SS cells): 1300 nM
- Plasma Protein Binding Fu ± SD (human plasma proteins): 0.014 ± 0.00166
- EC50 (HIV-1RF): 80 nM
- IC50 (CYP3A4; [5]): 2500 nM
- IC50 (CYP3A4; [6]): ~2100 nM

Compound: CCCC1(CCc2ccccc2)CC(O)=C(C(CC)c2cccc(N(CCOCCOCCOCCOCCOC)S(=O)(=O)c3ccc(C(F)(F)F)cn3)c2)C(=O)O1 (centres unmarked) [mPEG5-amide-Tipranavir]
- CLint ± SEM (human hepatocytes): 3.62 ± 0.527 μL/min/10^6 cells
- Microsomal Protein Binding Fu ± SD [1]: highly unbound
- CEM-SS TC50 ± SD (CEM-SS cells): 12800 nM
- Plasma Protein Binding Fu ± SD (human plasma proteins): 0.0308 ± 0.00399
- EC50 (HIV-1RF): > 200000 nM
- IC50 (CYP3A4; [5]): 1700 nM
- IC50 (CYP3A4; [6]): 2800 nM

Compound: COCCOCCOCCOCCOCCOC(=O)N[C@@H](C(=O)NC(Cc1ccccc1)[C@@H](O)CN(Cc1ccc(-c2ccccn2)cc1)NC(=O)[C@H](NC(=O)OCCOCCOCCOCCOCCOC)C(C)(C)C)C(C)(C)C (some centres unmarked) [di-mPEG5-Atazanavir]
- CLint ± SEM (human hepatocytes): 0.824 ± 0.950 μL/min/10^6 cells
- Efflux ratio (B→A/A→B) (Caco-2 cells): >10.8
- A→B, ×10^−6 (Caco-2 cells): 0.06 cm/s
- Microsomal Protein Binding Fu ± SD [1]: highly unbound
- CEM-SS TC50 ± SD (CEM-SS cells): >200000 nM
- IC50 [2]: 17.3 nM
- Plasma Protein Binding Fu ± SD (human plasma proteins): 0.537 ± 0.0412
- EC50 (HIV-1RF): 1110 nM
- IC50 (CYP3A4; [5]): > 50000 nM
- IC50 (CYP3A4; [6]): > 50000 nM
